{"source": "patent EP0728482A2", "about": "“Use of hcp specific compounds to enhance erythropoiesis” (SMITHKLINE BEECHAM CORPORATION, priority 1995, dated 1996)", "target": "T1, human src SH2 domain (Homo sapiens, UniProt P12931)", "T1 construct": "made in house; host or cells: E. coli AR120", "T1 sequence (P12931 148-251)": "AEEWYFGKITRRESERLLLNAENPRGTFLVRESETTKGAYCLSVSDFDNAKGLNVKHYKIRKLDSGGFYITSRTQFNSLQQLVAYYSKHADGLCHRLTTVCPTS", "test": "ELISA-based SH2 domain / pY peptide binding assay, src SH2 domain", "procedure": "The inhibitory activity of compounds at the different human SH2 domains was determined in vitro using SH2 domains expressed as fusion proteins in E. coli. The SH2 domains used herein were the human forms of the src SH2 domain, Grb2 SH2 domain, lck SH2 domain, fyn SH2 domain, SH-PTP2 SH2 domain, p85 SH2 domain and hcp SH2 domain.\nThe fusion proteins containing the src, lck and hcp SH2 domains were expressed as the general sequence: DET1-DET2-spacer-ek-SH2, where DET1, DET2, spacer, ek and SH2 are as described below. DET1 (\"defined epitope tag 1\") (SEQ ID NO: 1) is an 11 amino acid sequence found in the Human Immunodeficiency Virus Type 1 (HIV-1) envelope protein gp120 (or gp160). Monoclonal antibodies to various epitopes of HIV-1 gp120 (or gp 160) are known in the art, see, for example U.S. Patent 5,166,050. One preferred example is monoclonal antibody 178.1 (see, e.g., Thiriart et al., J. Immunol., 143:1832-1836 (1989)), which was prepared by immunization of mice with a yeast-expressed HIV-1 gp160 molecule from strain BH10 (Ratner et al., Nature, 313:277-284 (1985)). This tag was used for detection of expression (by Western blot), for purification of the protein (by affinity chromatography), and for configuring assays in which the fusion protein was captured or immobilized using the 178.1 antibody. DET2 is a hexa-histidine sequence tag (SEQ ID NO: 2) which binds to nickel-containing resins and was used for purification purposes. Spacer (SEQ ID NO: 3) was utilized to design a BamH1 restriction site at the indicated position of the construct. The term -ek-refers to a recognition sequence (SEQ ID NO: 4) for the enterokinase protease which provides for the optional removal of the tags from the SH2 domain, thus producing an SH2 domain that contains no extraneous amino acids. SH2 domains which contain no extraneous amino acids are preferable to tagged protein for crystallography studies. SH2 refers to the SH2 domains of different proteins.\nProcedure 2: Cloning, expression and purification of human src SH2 domain containing tags and an enterokinase proteolytic cleavage site (DET1-DET2-spacer-ek-src SH2).\nA DNA sequence encoding protein ek-src SH2 was PCR amplified from a cDNA clone containing the human src gene (c-src SH2 DNA sequence identical to that described in Takeya,T. and Hanafusa, H, 1983 Cell 32:881-890) using the following primers: [formula]\nThe PCR product was digested with BamHI and XbaI, followed by isolation of the digested fragment on an agarose gel. The fragment was ligated into BamHI-XbaI-digested expression vector containing the tagged chicken src gene DET1-DET2-spacer-SH2 described in Procedure 1 above. In that vector, the BamHI site is located between the coding regions for DET2 and SH2, and the XbaI site is located after the 3' end of the SH2 coding region. The ligation reaction was used to transform E. coli MM294cI^+. The construct DET1-DET2-spacer-ek-src SH2 was confirmed by DNA sequencing (SEQ ID NO: 5) and induced in E. coli strain AR120 as described in Procedure 1 above. A Coomassie-Blue-stained, Western-blot-positive induced protein band with an apparent molecular weight of 16,000 was observed after nalidixic acid induction.\nCells were lysed at neutral pH by sonication in the presance of lysozyme. After centrifugation, the soluble extract was chromatographed on a Ni^++NTA column. After washing the column with equilibration buffer (Tris buffer pH 8 containing 0.5 M Nacl) and the same buffer containing 15 mM imidazole, the protein was eluted in highly purified form with 25 mM imidazole in equilibration buffer.\nThe binding assays for the SH2 domains and pY peptides were performed in an ELISA-based 96 well plate assay. […]"}
{"smiles": "CCCCCCNC(=O)[C@H]1CC[C@H](CNC(=O)c2ccc(C(=O)c3ccc(C(=O)O)cc3)cc2)CC1", "note": "[Compound 6, 4-carboxy-benzophenone-4-carboxamido-trans-4-methyl-cyclohexyl-N-hexyl carboxamide]", "values": [{"measurement": "Ki", "setting": "Ki calculated from IC50 with the expanded equation", "value": 13, "unit": "µM"}, {"measurement": "IC50", "setting": "inhibition of binding of 0.1 uM biotinylated pY peptide to SH2 domain fusion protein", "value": 20, "unit": "µM"}]}
